According to patent publication US10906900B2, “Compounds for using in imaging and particularly for the diagnosis of neurodegenerative diseases” (CENTRE NATIONAL DE LA RECHERCHE SCIENTIFIQUE, priority 2016, dated 2021):
Read-outs that look alike come from different tables or passages of the source.

Assays:
[1] = biological target: Aβ1-42 fibres (Homo sapiens, UniProt P05067); assay: In vitro inhibition of ThT binding and determination of Ki (fluorescence), Aβ1-42 fibres; settings: vs Thioflavin T 500 nM; Aβ1-42 fibres 500 nM; PBS pH7.4, 1 h RT; read-out: Ki Aβ
Sequence of Aβ1-42 fibres (P05067 672-713 limits assumed): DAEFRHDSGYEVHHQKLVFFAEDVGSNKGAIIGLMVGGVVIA
Description: (§1) To obtain fiber assembly, α-syn is incubated in Tris-HCl 50 mM pH7.5, KCl 150 mM at 37° C. under continuous agitation during 4 days. The lyophilized Aβ1-42 was dissolved in 1,1,1,3,3,3-Hexafluoro-2-propanol (HFIP) at 0.2 mg/mL and incubated for 24 h at 37° C. to obtain the complete solubilization. The HFIP is evaporated under nitrogen stream to obtain a dry product. To start the fiber assembly, the dry peptide is resuspended in PBS pH7.4, 10% (v/v) DMSO and incubated at 37° C. for 3 days without agitation.
(§2) Protein fibers are systematically observed by electron microscopy (Jeol 1400). The images are recorded with a CCD camera (Gatan Orius). Finally, the percentage of α-syn and Aβ1-42 aggregated into fibers is checked on the pellet after centrifugation at 40000×g for 20 min and determination of the concentration of soluble protein/peptide remaining in the supernatant.
(§3) The samples are incubated for 1 h at room temperature (RT) to reach equilibrium. […] From each curve, the IC50 value is measured using the following equation: Y=min+(max−min)/1+([…])^slope

[2] = biological target: α-syn fibers (Homo sapiens (Human), UniProt P37840); assay: In vitro direct determination of Kd and Bmax by fluorescence, α-syn fibers; format: binding; settings: for αsyn Bmax1: density of binding sites; for αsyn Bmax1 / Kd: direct fluorescence, Scatchard analysis; for Kd: α-syn fibers 200 nM, read-out: αsyn Kd1; for αsyn Bmax1 (number of sites/monomer): in brackets in the Bmax cell; for α-syn selectivity according to analysis of Kd (Tables 6 and 7): selective = good affinity and at least two times greater than for at least one of the two other proteins
Description: as §1
(§4) Fresh solutions of each test compound (2.5 mM in DMSO) are diluted in PBS pH=7.4 at concentrations between 0.5 nM and 5 μM in the presence or absence of α-syn (200 nM), Aβ1-42 (500 nM) or Tau (200 nM) fibers in a final 2 mL volume. After 1 h of incubation at RT, the binding of each compound to α-syn, A131-42 or Tau fibers is measured by fluorescence using the spectral changes of the compounds during their binding to the fibers, using the appropriate excitation/emission wavelengths (those giving the highest fluorescence variation during binding to the fibres). For each concentration of compound added to the fibres, the bound and free fractions are measured by fluorescence according to the following equation: Fm=FBB+FF×(T−B)
(§5) The value of FF is determined by measuring the fluorescence of known concentrations of compounds in the absence of fibres. The FB value is determined by measuring the maximum fluorescence of known concentrations of compounds in the presence of saturated concentrations of α-syn, Aβ1-42, or Tau fibers.
(§6) The values of B thus determined versus the concentrations of the free fractions (T-B) are analyzed according to the Michaelis-Menten equation. The affinity (Kd) and density of binding sites within the fibers of α-syn, Aβ1-42 or Tau (Bmax) are determined by Scatchard analysis, which also makes it possible to highlight multiple site classes.

[3] = biological target: α-syn fibres (Homo sapiens (Human), UniProt P37840); assay: In vitro inhibition of ThT binding and determination of Ki (fluorescence), α-syn fibres; settings: for Ki: vs Thioflavin T 500 nM, α-syn fibres 200 nM, PBS pH7.4, 1 h RT, read-out: Ki αsyn
Description: as §1, §2, §3

[4] = biological target: Tau fibers (Homo sapiens (Human), UniProt P10636); assay: In vitro direct determination of Kd and Bmax by fluorescence, Tau fibers; format: binding; settings: for Tau Bmax1: density of binding sites; for Tau Bmax1 / Kd: direct fluorescence, Scatchard analysis; for Kd: Tau fibers 200 nM, read-out: Tau Kd1; for Tau Bmax1 (number of sites/monomer): in brackets in the Bmax cell
Sequence of Tau fibers (P10636 other isoform, or with tags, fused parts or gaps): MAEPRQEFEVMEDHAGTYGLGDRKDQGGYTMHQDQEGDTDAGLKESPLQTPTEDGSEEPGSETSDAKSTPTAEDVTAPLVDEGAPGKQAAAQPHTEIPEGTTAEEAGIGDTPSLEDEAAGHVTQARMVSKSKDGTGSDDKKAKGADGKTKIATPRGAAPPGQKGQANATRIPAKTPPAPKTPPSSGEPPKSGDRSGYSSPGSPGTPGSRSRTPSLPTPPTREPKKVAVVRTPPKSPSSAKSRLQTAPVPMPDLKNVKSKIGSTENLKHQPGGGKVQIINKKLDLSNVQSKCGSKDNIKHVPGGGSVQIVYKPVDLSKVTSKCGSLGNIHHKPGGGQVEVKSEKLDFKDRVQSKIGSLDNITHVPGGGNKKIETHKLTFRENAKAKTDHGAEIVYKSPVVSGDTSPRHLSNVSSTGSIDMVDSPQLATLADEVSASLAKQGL
Description: Human Tau protein (isoform h2N4RTau) is expressed in the vector pET11d in E. Coli (strain BL21 (DE3), (Stratagene, La Jolla, Calif.)) and purified according to the described method (Barghorn S, Biernat J, Mandelkow E. (2005) Methods Mol Biol. 299:35-51). The Tau purified concentration is determined by measuring the absorbance at 280 nm using a molar extinction coefficient of 7450 M^−1 cm^−1.
(§7) Tau protein in PBS buffer containing 1 mM DTT is assembled into fiber in the presence of one twelfth of a molar equivalent of heparin at 37° C. under stirring.
as §4
Where Fm is the fluorescence measured in the presence of fibers at a concentration T of the compound added to the fibers, FB is the specific fluorescence of the bound compound, FF is the specific fluorescence of the free compound, and B is the concentration of the fiber bound compound at a given concentration T (Bell, J. E., “Fluorescence; Solution Studies”, Spectrometry in Biochemistry, vol. I, Bell, J. E., ed., CRC Press, Inc., Boca Raton, Fla., pp. 155-194 (1981)).
as §5
Thus, at each point, the concentration of bound compound B is determined according to the following equation: B=(Fm−FF×T)/(FB−FF)
as §6

[5] = biological target: Tau fibres (Homo sapiens (Human), UniProt P10636); assay: In vitro inhibition of ThT binding and determination of Ki (fluorescence), Tau fibres
Sequence of Tau fibres (P10636 other isoform, or with tags, fused parts or gaps): as above
Description: as §7, §3

[6] = biological target: Aβ1-42 fibers (Homo sapiens, UniProt P05067); assay: In vitro direct determination of Kd and Bmax by fluorescence, Aβ1-42 fibers; format: binding; settings: for Aβ Bmax1: density of binding sites; for Aβ Bmax1 / Kd: direct fluorescence, Scatchard analysis; for Kd: Aβ1-42 fibers 500 nM, read-out: Aβ Kd1; for Aβ Bmax1 (number of sites/monomer): in brackets in the Bmax cell
Sequence of Aβ1-42 fibers (P05067 672-713 limits assumed): as the sequence (P05067 672-713 limits assumed) above
Description: as §1, §4, §5, §6

[7] = selective = good affinity and at least two times greater than for at least one of the two other proteins

SMILES	Ki [1] [µM]	αsyn Bmax1 [2] [nmol/μmol prot]	Kd [2] [µM]	αsyn Bmax1 (number of sites/monomer) [2]	Tau Bmax1 [4] [nmol/μmol prot]	Kd [4] [µM]	Tau Bmax1 (number of sites/monomer) [4]	Aβ Bmax1 [6] [nmol/μmol prot]	Kd [6] [µM]	Aβ Bmax1 (number of sites/monomer) [6]	also measured
CN(C)c1ccc(C#Cc2cc3cnccc3[nH]2)cc1 [Compound 22d, 4-((1H-Pyrrolo[3,2-c]pyridin-2-yl)ethynyl)-N,N-dimethylaniline]		6.0 ± 1	0.001 ± 0.0005	1/170	12.5 ± 5	0.0024 ± 0.0009	1/80	2.4 ± 0.8	0.0036 ± 0.002	1/400	α-syn selectivity according to analysis of Kd (Tables 6 and 7) [2]: selective
CN(C)c1ccc(C#Cc2cc3ccc(Cl)nc3[nH]2)cc1 [Compound 22e, 4-((6-Chloro-1H-pyrrolo[2,3-b]pyridin-2-yl)ethynyl)-N,N-dimethylaniline]	0.909 ± 0.143										α-syn selectivity according to analysis of Ki (Table 5) [3, 7]: selective; Ki [3]: 0.0499 ± 0.012 µM; Ki [5]: 0.0251 ± 0.008 µM; Tau selectivity according to analysis of Ki (Table 5) [5, 7]: selective
CN(C)c1ccc(C#Cc2cc3ccc(F)nc3[nH]2)cc1 [Compound 22f, 4-((6-Fluoro-1H-pyrrolo[2,3-b]pyridin-2-yl)ethynyl)-N,N-dimethylaniline]	0.349 ± 0.256							21.6 ± 3	0.0168 ± 0.002	1/50	
CN(C)c1ccc(C#Cc2cc3cc(F)cnc3[nH]2)cc1 [Compound 22g, 4-((5-Fluoro-1H-pyrrolo[2,3-b]pyridin-2-yl)ethynyl)-N,N-dimethylaniline]	0.318 ± 0.095										
CN(C)c1ccc(C#Cc2cc3c(F)ccnc3[nH]2)cc1 [Compound 22h, 4-((4-Fluoro-1H-pyrrolo[2,3-b]pyridin-2-yl)ethynyl)-N,N-dimethylaniline]	0.244 ± 0.084										

The next lines start with results.

Ki [1] [µM]	αsyn Bmax1 [2] [nmol/μmol prot]	Kd [2] [µM]	αsyn Bmax1 (number of sites/monomer) [2]	Tau Bmax1 [4] [nmol/μmol prot]	Kd [4] [µM]	Tau Bmax1 (number of sites/monomer) [4]	Aβ Bmax1 [6] [nmol/μmol prot]	Kd [6] [µM]	Aβ Bmax1 (number of sites/monomer) [6]	SMILES	also measured
0.0022 ± 0.001	27.9 ± 19	0.0243 ± 0.02	1/35	92.0 ± 20	0.0196 ± 0.005	1/11	3.33 ± 0.2	0.00168 ± 0.0002	1/300	CNc1ccc(/C=C/c2ccc(OCCOCCOCCF)nc2)cc1 [AV45, reference compound]	Ki [3]: 0.0766 ± 0.044 µM; Ki ([5]; vs Thioflavin T 500 nM, Tau fibres 200 nM, PBS pH7.4, 1 h RT): 0.0306 ± 0.009 µM
	53.5 ± 10	0.00049 ± 0.0002	1/20	70.4 ± 4	0.00167 ± 0.0005	1/10	5.8 ± 0.32	0.0049 ± 0.0006	1/170	CN(C)c1ccc(C#Cc2cc3ccc(-c4cccs4)nc3[nH]2)cc1 [Compound 25a, N,N-Dimethyl-4-((6-(thiophen-2-yl)-1H-pyrrol[2,3-b]pyridin-2-yl)ethynyl)aniline]	α-syn selectivity according to analysis of Kd (Tables 6 and 7) [2]: selective
							11.0 ± 1	0.00427 ± 0.0006	1/90	CN(C)c1ccc(C#Cc2cc3ccc(-c4ccsc4)nc3[nH]2)cc1 [Compound 25b, N,N-Dimethyl-4-((6-(thiophen-3-yl)-1H-pyrrol[2,3-b]pyridin-2-yl)ethynyl)aniline]	
							11.0 ± 2	0.0031 ± 0.001	1/90	CN(C)c1ccc(C#Cc2cc3ccc(-c4ccc(F)nc4)nc3[nH]2)cc1 [Compound 25c, 4-((6-(6-Fluoropyridin-3-yl)-1H-pyrrolo[2,3-b]pyridin-2-yl)ethynyl)-N,N-dimethylaniline]	
